{
  "source": "patent US7725174B2",
  "about": "(priority 2006, dated 2010)",
  "key": {"[1]": {"system": "human volunteer subjects", "details": "one subject", "text": "As with ApEn, these entropy measures compare changes in the time series of raw EEG data as it is generated. However, they are designed to determine qualities about the system which is generating the data. As such, they have potential to impart information about changes in CNS rather than just changes in the EEG. Information can be related about the CNS from a mesoscopic scale to a microscopic scale. […] Correlation dimension has not been used for real time analyses in the past because the computation usually requires large data sets for precise determination of the actual dimension of the data space. (See, Preissl, H., W. Lutzenberger, F. Pulvermuller, and N. Birbaumer, Fractal dimensions of short EEG time series in humans. Neurosci Lett, 1997. 225: p. 77-80.) To address this problem, we used short segments (e.g., 10 seconds) of data to calculate the correlation dimension and averaged the critical distance parameter ε, with each new estimate. Though this limits the accuracy with which signal dimension can be determined, it provides a reasonable estimate that changes as signal complexity changes.\nUsing the same raw EEG data, Lyapunov exponents of the EEG were also determined. Lyapunov exponents provide a qualitative indicator of signal stability. Unstable signals are sensitive to initial conditions and thus the predictability of their future trajectory is difficult. […]"}, "[2]": {"system": "human volunteer subjects", "details": "in vivo"}},
  "data": [
    {"smiles": "CC(C)c1cccc(C(C)C)c1O", "note": "[propofol]", "values": [
      {"measurement": "Lyapunov exponent with increasing sedation", "setting": "[1]; FIG. 9", "result": "tends towards a positive value"},
      {"measurement": "changes in correlation dimension by clinical frequency band", "setting": "[1]; awake to deeper levels of sedation, FIG. 8", "result": "appear in the higher frequency ranges first"},
      {"measurement": "change in ApEn with drug concentration", "setting": "[2]", "result": "decreased"}
    ]}
  ]
}
